According to PMC12029992, “Beyond-Rule-of-Five Compounds Are Not Different: In Vitro–In Vivo Extrapolation of Female CD-1 Mouse Clearance Based on Merck Healthcare KGaA Compound Set” (Pharmaceuticals, 2025):

Experiments:
[1] = Unbound fraction in the hepatocyte incubation (fu,hep) by rapid equilibrium dialysis; type: in vitro ADME, mouse; conditions: for fu,hep: experimental unbound fraction in hepatocyte incubation
Description: (§1) The free fraction in mouse plasma, in the microsome incubation, and in the hepatocyte incubation was determined using rapid equilibrium dialysis (RED) in Teflon-coated 96-well RED devices. Test compounds were added as DMSO stocks to the donor matrix at 0.5 µM (final DMSO concentration of 0.5%) and dialyzed against phosphate buffer (70 mM, pH 7.4) in the receiver compartment for 4 h at 37 °C.
(§2) The donor matrices differed for the various unbound fractions. […] Mouse serum was dialyzed overnight to exchange the carbonate with a phosphate buffer and was then used as a donor matrix in the experiment (50% serum in 70 mM phosphate buffer, pH 7.4). For fu,mic, human liver microsomes were used as a surrogate for mouse microsomes as a donor matrix in the experiment (0.8 mg protein/mL in 70 mM phosphate buffer, pH 7.4). For fu,hep, mouse hepatocytes were inactivated by incubating overnight at room temperature and then used as a donor matrix in the experiment (0.2 million cells/mL in 70 mM phosphate buffer, pH 7.4).
(§3) Samples were taken from both compartments after 4 h of incubation and analyzed via UHPLC-MS/MS. The unbound fraction, fu, was calculated as follows: fu=creceiver/cdonor
(§4) The fu values were interconverted from one matrix concentration to another using the following formula: fu2=fu1/M2/M1−fu1·M2/M1−1 where fu2 at matrix concentration M2 can be calculated from the fu1 value at matrix concentration M1.
(§5) The recovery was calculated to check the mass balance after the experiment by adding the total compound levels in both the donor and receiver compartments.

female CD-1 mouse [2] = assay: IVIVE of mouse clearance from hepatocytes (well-stirred model, regression correction); conditions: for Fold obs. / pred. (hep.) CL,b,u - Kilford / in vitro (hep.) pred. CLint,b - Kilford / in vitro (hep.) pred. CLint,b,u - Kilford: Kilford fu,hep
Excerpt: (§6) Compounds with phase II metabolism were removed from the microsome set (N = 25). […] The following regression equations were derived for microsomes and hepatocytes, respectively: log predicted CLint = 0.8 * log scaled CLint + 0.6 and log predicted CLint = 0.6 * log scaled CLint + 0.8, with CLint expressed in mL/min/kg.
(§7) According to Sohlenius-Sternbeck et al., the following equations were used for IVIVE: scaled CLint,b=in vitro CLint∗microsomes/hepatocytes/gram of liver∗liver weight/body weight∗fu,p/fu,inc∗Rb
(§8) The physiological scaling factors, taken from Simcyp^TM version 13/1 (Certara), were 48 mg of microsomal protein per gram of liver (MPPGL), 101.7 × 10^6 hepatocytes per gram of liver (HPGL), a liver weight of 1.46 g, and a body weight of 0.025 kg. For microsomes and hepatocytes, fu,mic and fu,hep, were used as the unbound fraction in the incubation (fu,inc), respectively. predicted CLint,b=10^(log scaled CLint∗slope+intercept)
(§9) For microsomes, a slope of 0.8 and an intercept of 0.6 were used, and for hepatocytes, a slope of 0.6 and an intercept of 0.8, according to the regression equations derived above. predicted CL,b=pred. CLint,b∗QH/pred. Clint,b+QH
(§10) CLp/Rb observed CLint,b=QH∗obs. CL,b/QH−obs. CL,b
(§11) All unbound clearance terms were calculated by dividing the respective clearance by fu,p. predicted/observed CL,b,u=pred./obs. CL,b/fu,p
(§12) The above-described approach was applied for the IVIVE of clearance of the data set analyzed in this study. Additionally, in order to evaluate the impact of the Kilford calculations as a surrogate for the experimentally determined free fraction in the in vitro systems, clearance was extrapolated using the Kilford equations [16] using the same regression coefficients.

[3] = Unbound fraction in the microsome incubation (fu,mic) by rapid equilibrium dialysis; type: in vitro ADME, human; conditions: for fu,mic: experimental unbound fraction in microsome incubation
Description: as §1, §2, §3, §4, §5

female CD-1 mouse [4] = assay: IVIVE of mouse clearance from microsomes (well-stirred model, regression correction); conditions: for Fold obs. / pred. (mic.) CL,b,u - Kilford / in vitro (mic.) pred. CLint,b - Kilford / in vitro (mic.) pred. CLint,b,u - Kilford: Kilford fu,mic
Excerpt: as §6, §7, §8, §9, §10, §11, §12

Kinetic solubility = type: physicochemical
Description: The kinetic solubility (KSOL) determination is carried out in a 96-well plate filtration format where the sample (2 μL of sample stock solution 10mM DMSO) is combined to 98 μL of 20 mM buffer phosphate pH 7.4. The filtration plate is then incubated and agitated at 250 rpm for 120 minutes. After stirring, the plate is centrifuged at 2500 rpm for 3 minutes, allowing all solvent to be collected in the lower microplate. Next to avoid pre-cipitation, 50 μL of the filtered solution is diluted with 50 μL of 2% DMSO in pH 7.4 buffer solution to yield a 100 μM sample solution ready for H(U)PLC analytics.
For the standard, each compound is prepared by combining 2 μL of the sample stock solution 10mM DMSO to 198 μL Acetonitrile/Methanol/Eluant A ([…]).
For the evaluation, wavelength with maximum sensitivity is to be selected. The kinetic solubility is determined according to following formulas, whereas S is the targeted value […]
L = area௦௔௠௣௟௘ × concentration௦௧௔௡ௗ௔௥ௗ × dilution factor௦௔௠௣௟௘area௦௧௔௡ௗ௔௥ௗ × dilution factor௦௧௔௡ௗ௔௥ௗ with: L= Concentration of solved compound in buffer [μg/ml] and S= Molar concentra-tion of solved compound in buffer [mol/L]
Chromatographic conditions: Column Waters XBridge Column C8 3.5μm (Waters Cat No 186003053); Column temperature 37°C; Autosampler Room temperature (approx.
25°C); Injection volume 10 μL (HPLC) / 3μL (UPLC); Wavelength 220 nm, 254 nm, 290 nm. Eluant A: 1 mL Formic Acid + 999 mL Ultrapure Water; Eluant B: 1 mL Formic Acid […]
Table S5. Gradient for UHPLC analysis
Time Eluent A (%) Eluent B (%) Flow (ml/min)
Reagents and Materials: Phosphate Buffer 20mM pH 7.4: EMS, Art No. 11601-40; DMSO Merck Art. No. 102950; Acetonitrile Merck, Art. No. 100030, Methanol Merck Art. No.
106007; Formic Acid Merck Art.No.100264; Acetonitrile Merck Art. No.10030; Filtration Plate Millipore MultiScreen HTS HV 0.45uM; 96 Well Millipore Art. No. MSHVN4510; Column Waters XBridge Column C8 3.5μm (Waters Cat. No. 186003053); HPLC vials VWR Cat. No. 5480028; Micro-Inserts VWR Cat. No. 548-0006; Screw caps VWR Cat. No. […]

[5] = hepatocytes, experimental fu,hep
[6] = microsomes, experimental fu,mic
[7] = recovery in equilibrium dialysis

| fu,hep [1] | fu,hep recovery ([1]; recovery in fu,hep dialysis) | Fold obs. / pred. (hep.) CL,b,u - Kilford (female CD-1 mouse [2]; hepatocytes) | in vitro (hep.) pred. CLint,b - Kilford (female CD-1 mouse [2]; hepatocytes) | in vitro (hep.) pred. CLint,b,u - Kilford (female CD-1 mouse [2]; hepatocytes) | Fold obs. / pred. (hep.) CL,b,u - exp. fu,hep (female CD-1 mouse [2]; [5]) | in vitro (hep.) pred. CLint,b - exp. fu,hep (female CD-1 mouse [2]; [5]) | in vitro (hep.) pred. CLint,b,u - exp. fu,hep (female CD-1 mouse [2]; [5]) | fu,mic [3] | fu,mic recovery ([3]; recovery in fu,mic dialysis) | Fold obs. / pred. (mic.) CL,b,u - Kilford (female CD-1 mouse [4]; microsomes) | in vitro (mic.) pred. CLint,b - Kilford (female CD-1 mouse [4]; microsomes) | in vitro (mic.) pred. CLint,b,u - Kilford (female CD-1 mouse [4]; microsomes) | Fold obs. / pred. (mic.) CL,b,u - exp. fu,mic (female CD-1 mouse [4]; [6]) | in vitro (mic.) pred. CLint,b - exp. fu,mic (female CD-1 mouse [4]; [6]) | in vitro (mic.) pred. CLint,b,u - exp. fu,mic (female CD-1 mouse [4]; [6]) | Kinetic solubility PBS pH 7.4 (Kinetic solubility) | SMILES | also measured |
| --- | --- | --- | --- | --- | --- | --- | --- | --- | --- | --- | --- | --- | --- | --- | --- | --- | --- | --- |
| 97.45% | 232% | 0.3 | 9.82 mL/min/kg | 576.00 mL/min/kg | 0.3 | 9.94 mL/min/kg | 582.73 mL/min/kg | 91.70% | 98% | 0.5 | 5.69 mL/min/kg | 334.02 mL/min/kg | 0.5 | 5.96 mL/min/kg | 349.34 mL/min/kg | > 200 µM | O=C(O)c1cc(-c2ccc(F)cc2F)ccc1O [MSC001] |  |
| 100.00% | 80% | 0.356 | 21.81 mL/min/kg | 285.43 mL/min/kg | 0.36 | 21.48 mL/min/kg | 281.21 mL/min/kg | 87.21% | 98% | 0.528 | 13.72 mL/min/kg | 179.53 mL/min/kg | 0.5 | 14.24 mL/min/kg | 186.35 mL/min/kg | 156.7 µM | CNC(=O)c1cc(Oc2ccc3nc(N[C@@H]4CCCC[C@H]4O)sc3c2)ccn1 [MSC003] |  |
| 91.30% | 50% | 1.5 | 99.13 mL/min/kg | 516.30 mL/min/kg | 1.5 | 103.91 mL/min/kg | 541.18 mL/min/kg | 58.66% | 61% | 1.3 | 148.30 mL/min/kg | 772.42 mL/min/kg | 1.1 | 214.87 mL/min/kg | 1119.12 mL/min/kg | 165.4 µM | COc1cccc(OCCCN)c1-c1cc(Nc2cnc(C#N)cn2)n[nH]1 [MSC020] |  |
| 87.81% |  | 1.4 |  |  |  |  |  | 35.01% |  | 1.7 |  |  |  |  |  | 105.1 µM | N#Cc1c[nH]c2c(C(=O)N3CCN(CCc4ccc(F)cc4)CC3)cccc12 [MSC213] | fu,hep recovery [1, 7]: 136%; in vitro (hep.) pred. CLint,b - Kilford (female CD-1 mouse [2]; from hepatocytes): 83.55 mL/min/kg; in vitro (hep.) pred. CLint,b,u - Kilford (female CD-1 mouse [2]; from hepatocytes): 1799.14 mL/min/kg; in vitro (hep.) pred. CLint,b - exp. fu,hep (female CD-1 mouse [2]; from hepatocytes, exp. fu,hep): 89.51 mL/min/kg; in vitro (hep.) pred. CLint,b,u - exp. fu,hep (female CD-1 mouse [2]; from hepatocytes, exp. fu,hep): 1927.40 mL/min/kg; Fold obs. / pred. (hep.) CL,b,u - exp. fu,hep (female CD-1 mouse [2]; hepatocytes, exp. fu,hep): 1.3; fu,mic recovery [3, 7]: 87%; in vitro (mic.) pred. CLint,b - Kilford (female CD-1 mouse [4]; from microsomes): 59.38 mL/min/kg; in vitro (mic.) pred. CLint,b,u - Kilford (female CD-1 mouse [4]; from microsomes): 1278.61 mL/min/kg; in vitro (mic.) pred. CLint,b - exp. fu,mic (female CD-1 mouse [4]; from microsomes, exp. fu,mic): 127.90 mL/min/kg; in vitro (mic.) pred. CLint,b,u - exp. fu,mic (female CD-1 mouse [4]; from microsomes, exp. fu,mic): 2754.05 mL/min/kg; Fold obs. / pred. (mic.) CL,b,u - exp. fu,mic (female CD-1 mouse [4]; microsomes, exp. fu,mic): 1.1 |
